In patent publication US10456443B2, “Peptidyl calcineurin inhibitors” (OHIO STATE INNOVATION FOUNDATION, priority 2014, dated 2019):
Non-standard residues stand in square brackets, D forms with d. Residues, ends and D or L forms follow the SMILES beside them. Tle = CC(C)(C)[C@H](N)C(=O)O

Key:
[1] = target: T1, calcineurin (CN) (Homo sapiens, UniProt Q08209)
[2] = target: T1, calcineurin (CN); details: read-out: IC50, inhibition of the binding of FITC-ZIZIT to CN; FITC-ZIZIT 100 nM, CN 150 nM, unlabeled competing peptide 0-20 μM
[3] = system: HeLa cells stably transfected with GFP-NFAT; experiment: GFP-NFAT translocation assay, live-cell confocal microscopy; details: 500 nM peptide, 2 h preincubation, 10 min ionomycin stimulation
[4] = system: macrophage cells; experiment: Inflammatory cytokine production in macrophage cells with LPS stimulation; type: cell-based
[5] = Cellular uptake of cell penetrating peptides; type: cell-based; details: versus R11

T1 sequence (Q08209 2-347 limits assumed): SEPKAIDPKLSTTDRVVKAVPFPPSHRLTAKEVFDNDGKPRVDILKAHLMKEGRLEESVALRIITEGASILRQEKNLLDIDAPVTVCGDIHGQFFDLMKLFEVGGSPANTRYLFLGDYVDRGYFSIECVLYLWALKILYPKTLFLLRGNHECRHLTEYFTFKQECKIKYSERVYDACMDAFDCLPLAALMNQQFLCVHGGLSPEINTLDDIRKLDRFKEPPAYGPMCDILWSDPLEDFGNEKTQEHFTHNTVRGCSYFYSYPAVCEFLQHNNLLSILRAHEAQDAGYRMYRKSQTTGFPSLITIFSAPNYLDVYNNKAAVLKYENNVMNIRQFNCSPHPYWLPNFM

Question: Which “fold higher affinity for CN than VIVIT” value ([1]; ZIZIT versus VIVIT) does the source give for `CC[C@H](C)[C@H](NC(=O)[C@@H](NC(=O)[C@@H](NC(=O)[C@@H](NC(=O)[C@@H]1CCCN1C(=O)[C@H](Cc1c[nH]cn1)NC(=O)[C@@H]1CCCN1C(=O)CN)C(C)(C)C)[C@@H](C)CC)C(C)(C)C)C(=O)N[C@H](C(=O)NCC(=O)N1CCC[C@H]1C(=O)N[C@@H](Cc1c[nH]cn1)C(=O)N[C@@H](CCC(=O)O)C(=O)N[C@@H](CCC(=O)O)C(N)=O)[C@@H](C)O` [ZIZIT, GPHPZIZITGPHEE] (H-GPHP[Tle]I[Tle]ITGPHEE-NH2) here?
Answer: 10 fold

Question: And the Kd ([1]; read-out: KD against CN, FA assay, N-terminal 5(6)-SFX labeled peptides (100 nM))?
Answer: 43 ± 12 nM

Question: What about the IC50 [2] of the same compound?
Answer: 280 ± 90 nM

Question: What does the source list for “Ac-RRRRRRRRRRRC-SPDP-GPHPZIZITG-Cys(Ψ^Me,MePro)-HEEG-Propyl [R11-ZIZIT-cisPro]”?
Answer: inhibition of the nuclear translocation of GFP-NFAT [3]: ~95%; attenuating the production of inflammatory cytokines ([4]; macrophages, 1 μM, compared with 50 μM R11-VIVIT): significantly more effective than 50 μM R11-VIVIT; fold more potent than R11-VIVIT in cellular assays ([4]; versus R11-VIVIT): approximately 100 fold

Question: With cyclo(fΦRrRrQ) [CP9] as the compound, how does the “fold more active than R11 for cellular uptake” value [5] read?
Answer: approximately 12 fold
